Measured values reported in ChEMBL document CHEMBL6078686, “Synthesis of 1-Hydroxy(and 1-Alkoxy, 1-Acyloxy)-1H-indoles and evaluations of their suppressive activities against tumor growth through inhibiting lactate dehydrogenase A” (Eur J Med Chem, 2025).
pIC50: −log10 of the molar value. Activity calls are given as the source filed them. No cut-off for these calls is given here.

Experiments:
[1] = Toxicity in male athymic mouse subcutaneously inoculated with human DLD-1 cells assessed as injury/inflammation in kidney at 5 to 25 mg/kg abdominally injected daily for 2 weeks after 15 days of tumor injection measured after 2 weeks; format: organism-based; conditions: in vivo, 336 h, dose 5-25 mg/kg
DLD-1 [2] = test: Induction of apoptosis in human DLD-1 cells assessed as caspase 9 at 20 to 40 uM measured after 48 hrs by Western blot analysis; format: functional, cell-based; conditions: dose 20-40 µM
[3] = target: T1, L-lactate dehydrogenase A chain (Homo sapiens, UniProt P00338); test: Inhibition of human recombinant LDHA assessed as conversion of NADH […] at by spectrofluorometry
[4] = Cytotoxicity against mouse AML12 cells assessed as inhibition of cell growth measured after 48 hrs incubation by MTT assay; format: toxicity, cell-based
DLD-1 [5] = test: In vivo tumor suppressor activity against human DLD-1 cells subcutaneously implemented in male athymic mouse model assessed as reduction in tumor volume at 5 to 25 mg/kg abdominally injected daily for 2 weeks after 15 days of tumor injection measured after 2 weeks; format: functional, organism-based; conditions: dose 5-25 mg/kg
DLD-1 [6] = test: In vivo tumor suppressor activity against human DLD-1 cells subcutaneously implemented in male athymic mouse model assessed as caspase 3 activation in tumor tissue at 25 mg/kg abdominally injected daily for 2 weeks after 15 days of tumor injection measured after 2 weeks; format: functional, organism-based
DLD-1 [7] = test: In vivo tumor suppressor activity against human DLD-1 cells subcutaneously implemented in male athymic mouse model assessed as reduction in tumor weight at 5 to 25 mg/kg abdominally injected daily for 2 weeks after 15 days of tumor injection measured after 2 weeks; format: functional, organism-based; conditions: dose 5-25 mg/kg
PANC-1 = test: Cytotoxicity against human PANC-1 cells assessed as inhibition of cell growth measured after 48 hrs incubation by MTT assay; format: functional
A549 = test: Cytotoxicity against human A549 cells assessed as inhibition of cell growth measured after 48 hrs incubation by MTT assay; format: functional
[8] = target: T1, L-lactate dehydrogenase A chain; test: Non-competitive inhibition of human recombinant LDHA assessed as ratio of Km/Vmax in presence of pyruvate by measuring NADH fluorescence at 100 nM by Lineweaver-Burk plot analysis
[9] = target: T1, L-lactate dehydrogenase A chain; test: Non-competitive inhibition of human recombinant LDHA assessed as ratio of Km/Vmax in presence of pyruvate by measuring NADH fluorescence at 25 nM by Lineweaver-Burk plot analysis
[10] = Cytotoxicity against mouse Hepa1-6 cells assessed as inhibition of cell growth measured after 48 hrs incubation by MTT assay; format: toxicity, cell-based, Hepa 1-6
[11] = Toxicity in male athymic mouse subcutaneously inoculated with human DLD-1 cells assessed as injury/inflammation in liver at 5 to 25 mg/kg abdominally injected daily for 2 weeks after 15 days of tumor injection measured after 2 weeks; format: organism-based; conditions: in vivo, 336 h, dose 5-25 mg/kg
[12] = target: T1, L-lactate dehydrogenase A chain; test: Inhibition of intracellular LDHA activity in human DLD-1 cell lysate assessed as conversion of NADH […] by spectrofluorometry; format: subcellular
DLD-1 [13] = test: Induction of apoptosis in human DLD-1 cells assessed as PARP at 20 to 40 uM measured after 48 hrs by Western blot analysis; format: functional, cell-based; conditions: dose 20-40 µM
HeLa = test: Cytotoxicity against human HeLa cells assessed as inhibition of cell growth measured after 48 hrs incubation by MTT assay; format: functional
MCF7 = test: Cytotoxicity against human MCF7 cells assessed as inhibition of cell growth measured after 48 hrs incubation by MTT assay; format: functional
DLD-1 [14] = test: Cytotoxicity against human DLD-1 cells assessed as inhibition of cell growth measured after 48 hrs incubation by MTT assay; format: functional
[15] = Cytotoxicity against human T HESCs cells assessed as inhibition of cell growth measured after 48 hrs incubation by MTT assay; format: toxicity, cell-based
DLD-1 [16] = test: Induction of apoptosis in human DLD-1 cells assessed as caspase 3 at 20 to 40 uM measured after 48 hrs by Western blot analysis; format: functional, cell-based; conditions: dose 20-40 µM
[17] = Toxicity in male athymic mouse subcutaneously inoculated with human DLD-1 cells assessed as weight loss at 5 to 25 mg/kg abdominally injected daily for 2 weeks after 15 days of tumor injection measured after 2 weeks; format: organism-based; conditions: in vivo, 336 h, dose 5-25 mg/kg
U-87 MG = test: Cytotoxicity against human U87 cells assessed as inhibition of cell growth measured after 48 hrs incubation by MTT assay; format: functional, U-87MG ATCC
[18] = system: CCCCCCOCc1c(C(=O)OC)n(O)c2cccc(Br)c12; test: Non-competitive inhibition of human recombinant LDHA assessed as Vmax in presence of pyruvate by measuring NADH fluorescence at 25 nM by Lineweaver-Burk plot analysis
[19] = system: CCCCCCOCc1c(C(=O)OC)n(O)c2cccc(Br)c12; test: Non-competitive inhibition of human recombinant LDHA assessed as Km in presence of pyruvate by measuring NADH fluorescence at 25 nM by Michaelis-Menten analysis
[20] = system: CCCCCCOCc1c(C(=O)OC)n(O)c2cccc(Br)c12; test: Non-competitive inhibition of human recombinant LDHA assessed as Vmax in presence of pyruvate by measuring NADH fluorescence at 100 nM by Lineweaver-Burk plot analysis
[21] = system: COC(=O)c1c(COCCc2ccccc2)c2c(Br)cccc2n1OC; test: Non-competitive inhibition of human recombinant LDHA assessed as Vmax in presence of pyruvate by measuring NADH fluorescence at 40 nM by Lineweaver-Burk plot analysis
[22] = system: COC(=O)c1c(COCCc2ccccc2)c2c(Br)cccc2n1OC; test: Non-competitive inhibition of human recombinant LDHA assessed as Vmax in presence of pyruvate by measuring NADH fluorescence at 160 nM by Lineweaver-Burk plot analysis
[23] = system: COC(=O)c1c(COCCc2ccccc2)c2c(Br)cccc2n1OC; test: Non-competitive inhibition of human recombinant LDHA assessed as Km in presence of pyruvate by measuring NADH fluorescence at 40 nM by Michaelis-Menten analysis
[24] = system: COC(=O)c1c(COCCc2ccccc2)c2c(Br)cccc2n1OC; test: Non-competitive inhibition of human recombinant LDHA assessed as Km in presence of pyruvate by measuring NADH fluorescence at 160 nM by Michaelis-Menten analysis
[25] = system: CCCCCCOCc1c(C(=O)OC)n(O)c2cccc(Br)c12; test: Non-competitive inhibition of human recombinant LDHA assessed as Km in presence of pyruvate by measuring NADH fluorescence at 100 nM by Michaelis-Menten analysis
[26] = target: T1, L-lactate dehydrogenase A chain; test: Non-competitive inhibition of human recombinant LDHA assessed as ratio of Km/Vmax in presence of pyruvate by measuring NADH fluorescence at 40 nM by Lineweaver-Burk plot analysis
[27] = target: T1, L-lactate dehydrogenase A chain; test: Non-competitive inhibition of human recombinant LDHA assessed as ratio of Km/Vmax in presence of pyruvate by measuring NADH fluorescence at 160 nM by Lineweaver-Burk plot analysis

CCCCCCOCc1c(C(=O)OC)n(O)c2cccc(Br)c12
Activity [1]: Non-toxic | Activity (DLD-1 [2]): Active | pIC50 [3]: 7.60 | inhibition [3]: Dose-dependent-effect | GI50 at 48 h [4]: > 100 µM | Activity (DLD-1 [5]): Active | Activity (DLD-1 [6]): Active | Activity (DLD-1 [7]): Active | GI50 (PANC-1): 31.4 µM | GI50 (A549): 45.6 µM | Vmax/Km [8]: 0.047 | Vmax/Km [9]: 0.056 | GI50 at 48 h [10]: 49.6 µM | Activity [11]: Non-toxic | pIC50 [12]: 4.93 | inhibition [12]: Dose-dependent-effect | Activity (DLD-1 [13]): Active | GI50 (HeLa): 39.6 µM | GI50 (MCF7): 31.7 µM | GI50 (DLD-1 [14]): 27 µM | GI50 at 48 h [15]: > 100 µM | Activity (DLD-1 [16]): Active | Activity [17]: Non-toxic | GI50 (U-87 MG): 60.9 µM

COC(=O)c1cc2c(C(F)(F)F)cc(-c3ccccc3)cc2n1O
GI50 (DLD-1 [14]): 106 µM

L-lactate dehydrogenase A chain (Homo sapiens) (from UniProt P00338)
Vmax [18]: 4.54 | Km [19]: 254 µM | Vmax [20]: 3.6 | Vmax [21]: 5.84 | Vmax [22]: 5.01 | Km [23]: 172 µM | Km [24]: 189 µM | Km [25]: 170 µM

COC(=O)c1c(COCCc2ccccc2)c2c(Br)cccc2n1OC
pIC50 [3]: 6.91 | inhibition [3]: Dose-dependent-effect | Vmax/Km [26]: 0.029 | GI50 at 48 h [4]: 85.2 µM | Vmax/Km [27]: 0.038 | GI50 (PANC-1): > 100 µM | GI50 (A549): > 100 µM | GI50 at 48 h [10]: 56.2 µM | inhibition [12]: inactive | GI50 (HeLa): 83.5 µM | GI50 (MCF7): > 100 µM | GI50 (DLD-1 [14]): > 100 µM | GI50 at 48 h [15]: > 100 µM | GI50 (U-87 MG): 66.7 µM
